Measurements taken from PubChem BioAssay (NCI).
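Method: 48-hour compound exposure of cells in 96-well plates, five concentrations, linear interpolation of endpoints. GI50: concentration for 50% inhibition of growth. The concentration for full growth arrest is given as TGI.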

Key:
Assay in all cases: NCI anticancer screen, dose series, 48 h
[1] = test system: A498 renal
[2] = test system: HS 578T breast
[3] = test system: PC-3 prostate
[4] = test system: U251 CNS
[5] = test system: LOX IMVI melanoma
[6] = test system: M14 melanoma
[7] = test system: SW-620 colon
[8] = test system: 786-0 renal
[9] = test system: MOLT-4 leukemia
[10] = test system: TK-10 renal
[11] = test system: SN12C renal
[12] = test system: UO-31 renal
[13] = test system: HT29 colon
[14] = test system: T-47D breast
[15] = test system: CAKI-1 renal
[16] = test system: SNB-75 CNS
[17] = test system: SF-539 CNS
[18] = test system: SR leukemia
[19] = test system: NCI-H460 lung
[20] = test system: MCF7 breast
[21] = test system: UACC-62 melanoma
[22] = test system: SK-MEL-28 melanoma
[23] = test system: SK-OV-3 ovarian
[24] = test system: RXF 393 renal
[25] = test system: MDA-MB-435
[26] = test system: SK-MEL-5 melanoma
[27] = test system: HOP-92 NSCLC
[28] = test system: MALME-3M melanoma
[29] = test system: CCRF-CEM leukemia
[30] = test system: SF-268 CNS
[31] = test system: ACHN renal
[32] = test system: OVCAR-4 ovarian
[33] = test system: SK-MEL-2 melanoma
[34] = test system: MDA-MB-231 breast
[35] = test system: HCC-2998 colon
[36] = test system: IGROV1 ovarian
[37] = test system: BT-549 breast
[38] = test system: OVCAR-5 ovarian
[39] = test system: K-562 leukemia
[40] = test system: HOP-62 NSCLC
[41] = test system: HL-60(TB) leukemia
[42] = test system: UACC-257 melanoma
[43] = test system: DU-145 prostate
[44] = test system: MDA-MB-468 breast
[45] = test system: COLO 205 colon
[46] = test system: NCI-H226 lung
[47] = test system: RPMI-8226 leukemia
[48] = test system: HCT-15 colon
[49] = test system: OVCAR-3 ovarian
[50] = test system: SNB-19 CNS
[51] = test system: OVCAR-8 ovarian
[52] = test system: EKVX NSCLC
[53] = test system: SF-295 CNS
[54] = test system: HCT-116 colon
[55] = test system: A549 NSCLC
[56] = test system: KM12 colon
[57] = test system: NCI-H23 lung
[58] = test system: NCI-H522 lung
[59] = test system: NCI/ADR-RES ovarian

**Q.** `Fc1ccccc1CNc1nc(SCCN2CCOCC2)nc2c1cnn2CC(Cl)c1ccc(Br)cc1` (stereo not drawn) was tested. Which GI50 [1] did it give?
**A.** 8.94 µM

**Q.** And the TGI [1]?
**A.** > 100 µM

**Q.** What about the GI50 [2] of the same compound?
**A.** 3.6 µM

**Q.** What about the TGI [2] of the same compound?
**A.** > 100 µM

**Q.** What about the GI50 [3] of the same compound?
**A.** 3.73 µM

**Q.** And the TGI [3]?
**A.** > 100 µM

**Q.** What about the GI50 [4] of the same compound?
**A.** 5.93 µM

**Q.** What about the TGI [4] of the same compound?
**A.** > 100 µM

**Q.** What about the GI50 [5] of the same compound?
**A.** 2600 nM

**Q.** And the TGI [5]?
**A.** 7.91 µM

**Q.** What about the GI50 [6] of the same compound?
**A.** 4.19 µM

**Q.** What about the TGI [6] of the same compound?
**A.** > 100 µM

**Q.** What about the GI50 [7] of the same compound?
**A.** 2050 nM

**Q.** And the TGI [7]?
**A.** 5.39 µM

**Q.** What about the GI50 [8] of the same compound?
**A.** 3.31 µM

**Q.** What about the TGI [8] of the same compound?
**A.** 30.6 µM

**Q.** What about the GI50 [9] of the same compound?
**A.** 3.46 µM

**Q.** What about the TGI [9] of the same compound?
**A.** > 100 µM

**Q.** And the GI50 [10]?
**A.** > 100 µM

**Q.** And the TGI [10]?
**A.** > 100 µM

**Q.** And the GI50 [11]?
**A.** 5.93 µM

**Q.** And the TGI [11]?
**A.** > 100 µM

**Q.** What about the GI50 [12] of the same compound?
**A.** 3.13 µM

**Q.** And the TGI [12]?
**A.** > 100 µM

**Q.** What about the GI50 [13] of the same compound?
**A.** 1470 nM

**Q.** And the TGI [13]?
**A.** 3.39 µM

**Q.** And the GI50 [14]?
**A.** 2870 nM

**Q.** What about the TGI [14] of the same compound?
**A.** > 100 µM

**Q.** And the GI50 [15]?
**A.** 3.83 µM

**Q.** And the TGI [15]?
**A.** > 100 µM

**Q.** And the GI50 [16]?
**A.** 2710 nM

**Q.** What about the TGI [16] of the same compound?
**A.** > 100 µM

**Q.** What about the GI50 [17] of the same compound?
**A.** 2290 nM

**Q.** And the TGI [17]?
**A.** 6.94 µM

**Q.** What about the GI50 [18] of the same compound?
**A.** 4.8 µM

**Q.** What about the TGI [18] of the same compound?
**A.** > 100 µM

**Q.** And the GI50 [19]?
**A.** 3.99 µM

**Q.** And the TGI [19]?
**A.** > 100 µM

**Q.** What about the GI50 [20] of the same compound?
**A.** 3.58 µM

**Q.** What about the TGI [20] of the same compound?
**A.** > 100 µM

**Q.** What about the GI50 [21] of the same compound?
**A.** 2090 nM

**Q.** What about the TGI [21] of the same compound?
**A.** 5.23 µM

**Q.** What about the GI50 [22] of the same compound?
**A.** 4.99 µM

**Q.** What about the TGI [22] of the same compound?
**A.** > 100 µM

**Q.** What about the GI50 [23] of the same compound?
**A.** > 100 µM

**Q.** And the TGI [23]?
**A.** > 100 µM

**Q.** What about the GI50 [24] of the same compound?
**A.** 1430 nM

**Q.** What about the TGI [24] of the same compound?
**A.** 5.27 µM

**Q.** And the GI50 [25]?
**A.** 4.98 µM

**Q.** And the TGI [25]?
**A.** > 100 µM

**Q.** What about the GI50 [26] of the same compound?
**A.** 2870 nM

**Q.** What about the TGI [26] of the same compound?
**A.** 10.7 µM

**Q.** And the GI50 [27]?
**A.** 3.96 µM

**Q.** What about the TGI [27] of the same compound?
**A.** > 100 µM

**Q.** What about the GI50 [28] of the same compound?
**A.** 2540 nM

**Q.** And the TGI [28]?
**A.** 6.89 µM

**Q.** What about the GI50 [29] of the same compound?
**A.** 3.34 µM

**Q.** What about the TGI [29] of the same compound?
**A.** > 100 µM

**Q.** And the GI50 [30]?
**A.** 6.08 µM

**Q.** And the TGI [30]?
**A.** > 100 µM

**Q.** And the GI50 [31]?
**A.** 4.39 µM

**Q.** And the TGI [31]?
**A.** > 100 µM

**Q.** And the GI50 [32]?
**A.** 3.49 µM

**Q.** What about the TGI [32] of the same compound?
**A.** > 100 µM

**Q.** What about the GI50 [33] of the same compound?
**A.** 2900 nM

**Q.** What about the TGI [33] of the same compound?
**A.** 11.7 µM

**Q.** What about the GI50 [34] of the same compound?
**A.** 3.6 µM

**Q.** What about the TGI [34] of the same compound?
**A.** > 100 µM

**Q.** And the GI50 [35]?
**A.** 3.94 µM

**Q.** And the TGI [35]?
**A.** > 100 µM

**Q.** What about the GI50 [36] of the same compound?
**A.** > 100 µM

**Q.** And the TGI [36]?
**A.** > 100 µM

**Q.** And the GI50 [37]?
**A.** 20.9 µM

**Q.** And the TGI [37]?
**A.** > 100 µM

**Q.** What about the GI50 [38] of the same compound?
**A.** > 100 µM

**Q.** What about the TGI [38] of the same compound?
**A.** > 100 µM

**Q.** And the GI50 [39]?
**A.** 2550 nM

**Q.** What about the TGI [39] of the same compound?
**A.** > 100 µM

**Q.** What about the GI50 [40] of the same compound?
**A.** 7.35 µM

**Q.** What about the TGI [40] of the same compound?
**A.** > 100 µM

**Q.** What about the GI50 [41] of the same compound?
**A.** 4.1 µM

**Q.** What about the TGI [41] of the same compound?
**A.** > 100 µM

**Q.** And the GI50 [42]?
**A.** 3.38 µM

**Q.** What about the TGI [42] of the same compound?
**A.** 79.1 µM

**Q.** What about the GI50 [43] of the same compound?
**A.** 49.6 µM

**Q.** And the TGI [43]?
**A.** > 100 µM

**Q.** And the GI50 [44]?
**A.** 2260 nM

**Q.** And the TGI [44]?
**A.** 7 µM

**Q.** What about the GI50 [45] of the same compound?
**A.** 2800 nM

**Q.** What about the TGI [45] of the same compound?
**A.** 8.12 µM

**Q.** And the GI50 [46]?
**A.** 3.52 µM

**Q.** And the TGI [46]?
**A.** > 100 µM

**Q.** What about the GI50 [47] of the same compound?
**A.** 2670 nM

**Q.** And the TGI [47]?
**A.** 8.25 µM

**Q.** And the GI50 [48]?
**A.** 1690 nM

**Q.** What about the TGI [48] of the same compound?
**A.** 3.95 µM

**Q.** And the GI50 [49]?
**A.** 37.4 µM

**Q.** What about the TGI [49] of the same compound?
**A.** > 100 µM

**Q.** What about the GI50 [50] of the same compound?
**A.** 7.08 µM

**Q.** What about the TGI [50] of the same compound?
**A.** > 100 µM

**Q.** What about the GI50 [51] of the same compound?
**A.** 6.36 µM

**Q.** What about the TGI [51] of the same compound?
**A.** > 100 µM

**Q.** And the GI50 [52]?
**A.** 5.28 µM

**Q.** And the TGI [52]?
**A.** > 100 µM

**Q.** And the GI50 [53]?
**A.** 3.04 µM

**Q.** And the TGI [53]?
**A.** > 100 µM

**Q.** And the GI50 [54]?
**A.** 3.67 µM

**Q.** What about the TGI [54] of the same compound?
**A.** > 100 µM

**Q.** And the GI50 [55]?
**A.** 4.06 µM

**Q.** What about the TGI [55] of the same compound?
**A.** > 100 µM

**Q.** What about the GI50 [56] of the same compound?
**A.** 3.74 µM

**Q.** And the TGI [56]?
**A.** > 100 µM

**Q.** What about the GI50 [57] of the same compound?
**A.** 7.76 µM

**Q.** What about the TGI [57] of the same compound?
**A.** > 100 µM

**Q.** What about the GI50 [58] of the same compound?
**A.** 5.16 µM

**Q.** And the TGI [58]?
**A.** > 100 µM

**Q.** What about the GI50 [59] of the same compound?
**A.** 4.24 µM

**Q.** And the TGI [59]?
**A.** > 100 µM
